Results from patent publication US20120220462A1, “INDUCING AGENT FOR PLANT ROOT” (Shiseido Company, Ltd., priority 2004, published 2012).

Assays:
Type in all cases: in vivo
[1] = test system: Hydrangea (variety name unknown) second node parts; test: Evaluation Test 1: root inducing performance on cut second node parts of Hydrangea, sprayed, on laboratory dishes; details: 25° C. continuous light, 20 days, five specimens, water group 1.1
Method: The second node parts of Hydrangea (variety name unknown) were cut out in August and placed on laboratory dishes, on which filter paper was laid.
Aqueous solutions of the specific ketol fatty acid (Ia) (concentrations 100 μM and 200 μM) were prepared and sprayed by sprayers on said cut Hydrangea, which were then allowed to stand covered for 2 hours. Note that the control group was sprayed with pure water and allowed to stand in the same way as the specific ketol fatty acid (Ia). Thereafter, water was added and the resultant product allowed to stand at 25° C. under continuous light for 20 days.
The average number of roots grown were counted for five specimens in each group, whereby the average for the water treatment group was 1.1, the specific ketol fatty acid (Ia) 100 μM group was 3.2, and the 200 μM group 3.1.

[2] = test system: Hydrangea (variety name unknown) branches including dormant buds; test: Evaluation Test 2: root inducing performance on Hydrangea branch cuttings including dormant buds, in soil; details: for Weight with soil attached / No. of roots grown/specimen: one month at 25° C.; for Weight with soil attached: water treatment 1.5; for No. of roots grown/specimen: water treatment 2.1
Method: Branches of Hydrangea (variety name unknown) including dormant buds were cut to 5 cm or so lengths in December and were transplanted into trays filled with soil composed of red gravel and vermiculite (7:3). Water or a specific ketol fatty acid (Ia) (10 μM, 100 μM) was sprayed, the specimens were then cultured in a 25° C. biochamber (12 hour bright/dark cycle) for one month. The weights in the state with the soil attached, when pulling the cuttings from the soil and the number of roots grown were measured. Note that an increase in the weight with the soil attached accompanies improvement of the soil holding rate accompanying development of fibrous roots and the proliferation of leaf buds.

[3] = test system: Prunus×yedoensis (cherry tree) cuttings; test: Root inducing performance test for Prunus×yedoensis cuttings (survival); details: 10 branches, water 0%
Source text: 15 test groups including the root inducing agent of the present invention alone and combinations of the agent with other existing root inducing agents were used for a test of the root inducing performance for Prunus×yedoensis.
The existing root inducing agents used for the test were the indole inducing agent shown by the following formula (V) (hereinafter abbreviated as the “IBL”. See Japanese Patent Publication No. 10-77268A) and the commercially available root inducing agent Oxiberon (hereinafter abbreviated as “Oxy”, Made by Bayer CropScience).
Test Group (1): water, Test Group (2): KODA 10 μM, Test Group (3): KODA 100 μM, Test Group (4): Oxy, Test Group (5): IBL 50 ppm, Test Group (6): IBL 100 ppm, Test Group (7): KODA 10 μM+Oxy, Test Group (8): KODA 100 μM+Oxy, Test Group (9): KODA 10 μM+IBL 50 ppm, Test Group (10): KODA 100 μM+IBL 50 ppm, Test Group (11): KODA 10 μM+IBL 100 ppm, Test Group (12): KODA 100 μM+IBL 100 ppm, Test Group (13): KODA 10 μM+IBL 50 ppm+Oxy, Test Group (14): KODA 100 μM+IBL 50 ppm+Oxy, Test Group (15): KODA 100 μM+IBL 100 ppm+Oxy.
Branches of Prunus×yedoensis used for the test were purchased from Sumitomo Forestry Landscaping Co., Ltd. These were cut to lengths of 5 to 8 cm or so from the tips and transplanted into mixed soil in trays composed of red gravel and vermiculite blended in a 7:3 ratio. At this time, 10 branches were used for each test group. […]

[4] = test system: Paraserianthes falcataria Becker cuttings; test: Root inducing performance test for Paraserianthes falcataria Becker cuttings; details: Oxiberon 0, after two months
Source text: Paraserianthes falcataria Becker useful as a material for producing plywood is a tropical plant, but like other trees, cannot be transplanted by cutting as the trees age. The inventors tried transplanting Paraserianthes falcataria Becker, considered impossible to transplant by cuttings, using KODA and the existing root inducing agent Oxiberon (made by Bayer CropScience). For the cultivation soil, they used red gravel granules.

[5] = test system: Hypericum chinense cuttings; test: Root inducing performance test for Hypericum chinense cuttings
Method: In this Example 3, in the same way as in Example 2, the specific ketol fatty acid (Ia) was used to test the root inducing performance for Hypericum chinense.
The compositions of the root inducing agents and the root inducing test procedure used in the test groups were the same as in Example 2. As a result of the tests, it was learned that there was 100% survival of the cuttings of Hypericum chinense in the case of use of the root inducing agent (10 μM) and IBL (50 ppm).
Note that the asterisks at the tops of the bar graphs of FIG. 1 indicate the rate of risk in measurement of the significant difference. One indicates a rate of risk of 5% or less, two a rate of risk of 1% or less, and three a rate of risk of 0.5% or less.

**Q.** With CC/C=C\C/C=C\CC(=O)C(O)CCCCCCCC(=O)O (centres unmarked) [specific ketol fatty acid (Ia), 9-hydroxy-10-oxo-12(Z),15(Z)-octadecadienoic acid] as the compound, how does the “average number of roots grown” value ([1]; 100 μM aqueous solution sprayed) read?
**A.** 3.2

**Q.** And the “average number of roots grown” value ([1]; 200 μM aqueous solution sprayed)?
**A.** 3.1

**Q.** And the “Weight with soil attached” value ([2]; 10 μM sprayed)?
**A.** 6.8 g/specimen

**Q.** And the “No. of roots grown/specimen” value ([2]; 10 μM sprayed)?
**A.** 5.3

**Q.** What about the “development of leaf buds” value ([2]; 10 μM, 100 μM sprayed, one month, read from Table II results) of the same compound?
**A.** promotes development of leaf buds

**Q.** And the “Weight with soil attached” value ([2]; 100 μM sprayed)?
**A.** 4.4 g/specimen

**Q.** And the “No. of roots grown/specimen” value ([2]; 100 μM sprayed)?
**A.** 6.5

**Q.** And the “number of cuttings surviving seven weeks after the start of the test” value ([3]; Test Group (2): KODA 10 μM)?
**A.** 10%

**Q.** And the “number of cuttings surviving seven weeks after the start of the test” value ([3]; Test Group (3): KODA 100 μM)?
**A.** 10%

**Q.** And the Maximum root length ([4]; KODA 10 (μm))?
**A.** 27.3 mm

**Q.** And the Root dried weight ([4]; KODA 10 (μm))?
**A.** 1.8 mg

**Q.** And the “Root Inducing rate” value ([4]; KODA 10 (μm), sprayed)?
**A.** 44%

**Q.** And the Maximum root length ([4]; KODA 100 (μm))?
**A.** 5.3 mm

**Q.** And the “Root Inducing rate” value ([4]; KODA 100 (μm))?
**A.** 11%

**Q.** What about the Root dried weight ([4]; KODA 100 (μm)) of the same compound?
**A.** 2.9 mg

**Q.** And the “amount of root inducing compared with the water-treated group (FIG. 1)” value ([5]; Test Group (2): KODA 10 μM)?
**A.** clearly increased

**Q.** And the “amount of root inducing compared with the water-treated group (FIG. 1)” value ([5]; Test Group (3): KODA 100 μM)?
**A.** clearly increased
